This note sets out measurements from PMC8002452, “Molecular Basis of AmpC β-Lactamase Induction by Avibactam in Pseudomonas aeruginosa: PBP Occupancy, Live Cell Binding Dynamics and Impact on Resistant Clinical Isolates Harboring PDC-X Variants” (International Journal of Molecular Sciences, 2021).

In one test the target is T1, PBP1a (Pseudomonas aeruginosa, UniProt Q07806).
T1 construct: PBP-containing membranes were isolated by ultracentrifugation; endogenous in cells; host or cells: P. aeruginosa PAO1 wild type (membrane preparations or intact cells)
T1 sequence (Q07806 whole entry): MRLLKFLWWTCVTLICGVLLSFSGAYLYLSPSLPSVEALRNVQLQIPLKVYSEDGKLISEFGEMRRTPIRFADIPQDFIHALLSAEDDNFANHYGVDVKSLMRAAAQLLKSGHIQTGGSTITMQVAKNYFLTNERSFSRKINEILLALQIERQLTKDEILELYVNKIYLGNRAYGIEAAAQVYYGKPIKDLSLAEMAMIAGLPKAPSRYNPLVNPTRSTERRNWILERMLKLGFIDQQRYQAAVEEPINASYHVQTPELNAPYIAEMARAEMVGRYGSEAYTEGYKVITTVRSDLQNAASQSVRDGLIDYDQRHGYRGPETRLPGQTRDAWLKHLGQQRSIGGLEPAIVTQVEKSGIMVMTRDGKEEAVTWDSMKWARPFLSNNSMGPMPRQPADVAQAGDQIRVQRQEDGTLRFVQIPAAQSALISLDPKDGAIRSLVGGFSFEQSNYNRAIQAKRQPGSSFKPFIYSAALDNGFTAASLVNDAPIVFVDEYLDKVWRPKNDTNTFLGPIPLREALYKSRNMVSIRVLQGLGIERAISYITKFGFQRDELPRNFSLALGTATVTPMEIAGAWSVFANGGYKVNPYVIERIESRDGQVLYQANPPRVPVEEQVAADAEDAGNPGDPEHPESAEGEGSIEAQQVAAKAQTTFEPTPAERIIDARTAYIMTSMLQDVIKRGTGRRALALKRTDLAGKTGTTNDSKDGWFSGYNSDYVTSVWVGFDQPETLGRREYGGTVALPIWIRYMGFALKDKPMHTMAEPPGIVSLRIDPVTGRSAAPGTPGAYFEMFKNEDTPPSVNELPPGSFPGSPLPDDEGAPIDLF
The test is described as follows: PBP-binding affinity (IC50), bocillin FL, isolated membranes. Further details: species or system P. aeruginosa PAO1. The note with it: PAO1 membranes 0.5 mg/mL, 30 min, 25 µM bocillin FL; read-out: Mean IC50 ± SD, PBP 1a (converted). The method, then:
(§1) PBP-binding affinity was determined using previously described methods. Briefly, P. aeruginosa PAO1 cultures grown to the midexponential phase (7.6 log10 CFU/mL) were incubated in CAMHB at 37 °C and 180 rpm, washed and centrifuged (3220× g for 10 min at 4 °C). Bacterial pellets were washed in 30 mL of PBS buffer (pH 7.5), resuspended in 10 mL of PBS and sonicated at 40% amplitude for three 2 min bursts (while immersed in an ice bath) and centrifuged at 3220× g for 15 min at 4 °C. PBP-containing membranes were isolated by ultracentrifugation at 150,000× g for 30 min at 4 °C. Total protein concentrations were measured through the Bradford method.
(§2) Subsequently, the fluorescent penicillin bocillin FL was added to a 25 μM final concentration. Labeled PBPs were denatured and separated through 4–15% SDS–polyacrylamide gel electrophoresis. Labeled PBPs were visualized using a Typhoon FLA 9500 biomolecular imager (GE Healthcare Bio-Sciences AB, Uppsala, Sweden) (excitation at 488 nm and emission at 530 nm), and binding was determined from at least three independent experiments using ImageQuant TL software v8.1.0.0 (GE Healthcare Bio-Sciences AB, Uppsala, Sweden).

A further test has as its target T2, PBP2 (Pseudomonas aeruginosa, UniProt Q9X6V3).
T2 construct: PBP-containing membranes were isolated by ultracentrifugation; endogenous in cells; host or cells: P. aeruginosa PAO1 wild type (membrane preparations or intact cells)
The description is as above. More on the design: species or system P. aeruginosa PAO1. The note with it: PAO1 membranes 0.5 mg/mL, 30 min, 25 µM bocillin FL; read-out: Mean IC50 ± SD, PBP 2 (converted). The protocol:
as §1, §2

Another test addresses PBP1b (Pseudomonas aeruginosa, UniProt G3XD31). Described as above. The following applies: PAO1 membranes 0.5 mg/mL, 30 min, 25 µM bocillin FL. More on the design: species or system P. aeruginosa PAO1. The method, then:
as §1, §2

The target of the next test is PBP5/6 (Pseudomonas aeruginosa, UniProt G3XD74). The test is described as above. Further details: species or system P. aeruginosa PAO1. The following applies: PAO1 membranes 0.5 mg/mL, 30 min, 25 µM bocillin FL; read-out: Mean IC50 ± SD, PBP 5/6 (converted). The method, then: as §1, §2
PBP5/6, sequence (G3XD74 entry or part of it): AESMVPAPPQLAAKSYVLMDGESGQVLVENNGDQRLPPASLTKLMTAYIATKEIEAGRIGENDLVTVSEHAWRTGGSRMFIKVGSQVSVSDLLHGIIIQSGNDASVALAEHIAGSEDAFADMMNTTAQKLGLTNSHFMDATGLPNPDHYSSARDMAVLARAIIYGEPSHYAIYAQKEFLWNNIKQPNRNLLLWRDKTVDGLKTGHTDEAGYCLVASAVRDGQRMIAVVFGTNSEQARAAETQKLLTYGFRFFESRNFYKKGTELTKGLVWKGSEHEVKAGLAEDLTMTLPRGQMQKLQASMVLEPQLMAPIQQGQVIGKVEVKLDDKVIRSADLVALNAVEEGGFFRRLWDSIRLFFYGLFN
Another test has as its target PBP4 (Pseudomonas aeruginosa, UniProt Q9HZG1). The test is described as above. More on the design: species or system P. aeruginosa PAO1. The following applies: PAO1 membranes 0.5 mg/mL, 30 min, 25 µM bocillin FL; read-out: Mean IC50 ± SD, PBP 4 (converted). The protocol:
as §1, §2

Test [1] concerns ampC mRNA in 109-E9 (CAZ/AVI-sensitive ST175 clinical isolate). The experiment in a line: qRT-PCR quantification of AmpC induction. In kind it is cell-based, P. aeruginosa. The note with it: IPM 8, FOX 64, AVI 16 µg/mL, relative to strain basal t=0. The protocol:
(§3) Samples were taken at 0, 30 and 180 min. Total RNA was extracted with the RNeasy Mini Kit (Qiagen, Hilden, Germany) and treated with TURBO DNase (Thermo Fisher Scientific, Waltham, MA, USA) to remove contaminating DNA. Samples were afterwards normalized to 50 ng/µL.
(§4) Normalized samples were then used for one-step reverse transcription and real-time PCR amplification using the QuantiTect SYBR green qRT-PCR kit (Qiagen, Hilden, Germany) in a CFX Connect Real-Time PCR System (Bio-Rad, Hercules, California, USA). Previously described primer pairs ACrnaF/ACrnaR and rpsL-1/rpsL-2 were used for the amplification of ampC and housekeeping gene rpsL, respectively. The mean values of relative mRNA expression (2^−ΔΔCt) obtained from at least two independent biological replicates and duplicate technical replicates were considered.
(In general: Quantitative PCR measures a nucleic acid by following its amplification.)

In test [2] the test system is ampC mRNA in wild-type PAO1. The test is described as follows: qRT-PCR quantification of AmpC induction. It is filed as cell-based, P. aeruginosa. The note with it: IPM 8, FOX 64, AVI 16 µg/mL, relative to strain basal t=0. The protocol:
as §3, §4

Test [3] concerns ampC mRNA in PAΔdacB (PBP4 knockout mutant). The experiment in a line: qRT-PCR quantification of AmpC induction. In kind it is cell-based, P. aeruginosa. The following applies: 180 min; IPM 8, FOX 64 µg/mL. The method, then:
as §3, §4

Test [4] concerns ampC mRNA in 110-G8 (AmpC DelG229–E247; PDC-223, CAZ/AVI-resistant ST175 clinical isolate). The test is described as follows: qRT-PCR quantification of AmpC induction. In kind it is cell-based, P. aeruginosa. The note with it: IPM 8, FOX 64, AVI 16 µg/mL, relative to strain basal t=0. The method, then:
as §3, §4

Test [5] relates to ampC mRNA in 101-E5 (CAZ/AVI-sensitive ST175 clinical isolate). The experiment in a line: qRT-PCR quantification of AmpC induction. In kind it is cell-based, P. aeruginosa. The note with it: IPM 8, FOX 64, AVI 16 µg/mL, relative to strain basal t=0. The method, then: as §3, §4
Test [6] deals with ampC mRNA in 103-H8 (AmpC E247K; PDC-221, CAZ/AVI-resistant ST175 clinical isolate). The test is described as follows: qRT-PCR quantification of AmpC induction. In kind it is cell-based, P. aeruginosa. The note with it: IPM 8, FOX 64, AVI 16 µg/mL, relative to strain basal t=0. The method, then: as §3, §4
The target in the next test is T3, PBP3 (Pseudomonas aeruginosa, UniProt G3XD46).
T3 construct: PBP-containing membranes were isolated by ultracentrifugation; endogenous in cells; host or cells: P. aeruginosa PAO1 wild type (membrane preparations or intact cells)
T3 sequence (G3XD46 whole entry): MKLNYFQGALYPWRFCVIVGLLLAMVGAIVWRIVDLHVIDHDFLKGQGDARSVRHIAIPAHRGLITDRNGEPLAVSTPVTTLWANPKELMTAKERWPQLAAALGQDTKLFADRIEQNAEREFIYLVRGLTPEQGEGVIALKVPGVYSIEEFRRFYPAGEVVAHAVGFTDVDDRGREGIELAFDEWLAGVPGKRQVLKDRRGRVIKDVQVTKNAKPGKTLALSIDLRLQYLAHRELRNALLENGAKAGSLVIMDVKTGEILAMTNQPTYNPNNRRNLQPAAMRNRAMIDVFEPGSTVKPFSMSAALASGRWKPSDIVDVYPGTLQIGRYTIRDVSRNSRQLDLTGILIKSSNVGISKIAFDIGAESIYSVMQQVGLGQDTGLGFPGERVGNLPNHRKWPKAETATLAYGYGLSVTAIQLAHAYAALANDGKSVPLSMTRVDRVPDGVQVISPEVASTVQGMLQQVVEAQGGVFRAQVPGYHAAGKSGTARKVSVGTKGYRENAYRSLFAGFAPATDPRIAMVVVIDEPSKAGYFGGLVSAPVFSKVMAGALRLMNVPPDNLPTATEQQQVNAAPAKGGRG
The test is described as follows: biochemical. It is filed as binding, P. aeruginosa PAO1. The note with it: PAO1 membranes 0.5 mg/mL, 30 min, 25 µM bocillin FL; read-out: Mean IC50 ± SD, PBP 3 (converted). The protocol: as §1, §2

A value given as a limit tells only on which side of the number the result lay.

PBP1b, sequence (G3XD31 entry or part of it): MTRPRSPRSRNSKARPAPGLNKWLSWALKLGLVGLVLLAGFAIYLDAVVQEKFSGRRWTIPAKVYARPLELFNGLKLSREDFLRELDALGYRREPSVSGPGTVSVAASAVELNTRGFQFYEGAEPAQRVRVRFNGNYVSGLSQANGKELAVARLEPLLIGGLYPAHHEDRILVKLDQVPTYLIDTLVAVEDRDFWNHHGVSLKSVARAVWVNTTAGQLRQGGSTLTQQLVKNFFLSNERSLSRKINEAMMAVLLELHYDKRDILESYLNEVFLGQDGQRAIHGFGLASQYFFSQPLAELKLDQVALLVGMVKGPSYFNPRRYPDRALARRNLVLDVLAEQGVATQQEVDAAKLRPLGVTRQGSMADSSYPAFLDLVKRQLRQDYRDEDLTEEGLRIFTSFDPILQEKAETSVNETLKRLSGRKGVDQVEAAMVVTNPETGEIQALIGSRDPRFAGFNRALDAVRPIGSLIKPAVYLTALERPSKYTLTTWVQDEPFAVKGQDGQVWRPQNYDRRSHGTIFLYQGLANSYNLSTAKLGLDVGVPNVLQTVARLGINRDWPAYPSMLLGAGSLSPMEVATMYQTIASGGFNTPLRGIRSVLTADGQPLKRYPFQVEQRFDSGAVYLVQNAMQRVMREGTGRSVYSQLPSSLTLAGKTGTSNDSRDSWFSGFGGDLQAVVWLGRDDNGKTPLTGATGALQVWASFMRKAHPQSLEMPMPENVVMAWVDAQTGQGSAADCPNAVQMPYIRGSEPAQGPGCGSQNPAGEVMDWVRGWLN
T2 sequence (Q9X6V3 entry or part of it): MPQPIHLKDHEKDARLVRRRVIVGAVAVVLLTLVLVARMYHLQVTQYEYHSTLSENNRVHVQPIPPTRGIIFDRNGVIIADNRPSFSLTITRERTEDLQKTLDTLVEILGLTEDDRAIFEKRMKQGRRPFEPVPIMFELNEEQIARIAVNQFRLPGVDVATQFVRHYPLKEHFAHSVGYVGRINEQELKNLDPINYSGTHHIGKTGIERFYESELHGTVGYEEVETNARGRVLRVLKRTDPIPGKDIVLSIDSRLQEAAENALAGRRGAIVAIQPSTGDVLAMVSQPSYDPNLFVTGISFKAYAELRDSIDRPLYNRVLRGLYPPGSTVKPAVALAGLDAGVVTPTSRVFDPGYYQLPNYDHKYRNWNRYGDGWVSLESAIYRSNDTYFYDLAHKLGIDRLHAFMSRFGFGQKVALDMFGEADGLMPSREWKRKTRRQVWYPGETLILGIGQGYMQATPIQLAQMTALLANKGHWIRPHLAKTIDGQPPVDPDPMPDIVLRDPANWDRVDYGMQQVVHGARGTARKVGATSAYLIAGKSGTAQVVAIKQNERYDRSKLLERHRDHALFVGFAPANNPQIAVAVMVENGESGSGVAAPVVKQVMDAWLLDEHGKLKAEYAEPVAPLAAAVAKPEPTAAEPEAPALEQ
PBP4, sequence (Q9HZG1 entry or part of it): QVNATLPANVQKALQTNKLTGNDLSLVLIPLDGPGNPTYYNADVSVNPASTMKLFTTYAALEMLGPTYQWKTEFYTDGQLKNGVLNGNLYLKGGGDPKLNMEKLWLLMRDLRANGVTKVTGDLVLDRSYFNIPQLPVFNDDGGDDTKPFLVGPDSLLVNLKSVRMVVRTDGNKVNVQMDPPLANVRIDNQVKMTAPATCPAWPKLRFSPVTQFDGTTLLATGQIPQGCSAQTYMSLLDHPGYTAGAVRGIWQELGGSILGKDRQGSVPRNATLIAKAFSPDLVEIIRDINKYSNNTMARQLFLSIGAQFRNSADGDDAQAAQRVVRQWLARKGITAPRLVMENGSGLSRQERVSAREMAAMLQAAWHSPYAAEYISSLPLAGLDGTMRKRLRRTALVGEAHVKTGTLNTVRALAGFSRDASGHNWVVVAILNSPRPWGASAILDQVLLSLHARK

Consider `CO[C@@]1(NC(=O)Cc2cccs2)C(=O)N2C(C(=O)O)=C(COC(N)=O)CS[C@@H]21` [Cefoxitin], for which the IC50 at PBP1a was 18.2 µM; on PBP2, 34.2 µM; at PBP1b (read-out: Mean IC50 ± SD, PBP 1b (converted)), greater than 74.9 µM; at PBP5/6, 21.1 µM; on PBP4, 3.51 µM; on PBP3 it was 25 µM. On PBP1b, the “Mean IC50 ± SD, PBP 1b” value is recorded as “no PBP1b binding was detected”. Moreover, the “Relative ampC expression” value in test [1] (109-E9, 0 min) is listed as 0.9; in [1] (109-E9, 30 min) it was 4.1; in test [1] (109-E9, 180 min), 8.8 ± 7.9; in test [1] (109-E9, 180 min, listed as FOX), 8.8; in test [2] (PAO1, 0 min) it was 0.9; in [2] (PAO1, 30 min) it was 3100. The “Relative ampC expression” value in [2] (PAO1, 180 min) stood at 2500; in test [4] (110-G8, 0 min) it was 3.3; in test [4] (110-G8, 30 min), 51.8 ± 13.2; in [4] (110-G8, 30 min, listed as FOX) it was 51.8; in test [4] (110-G8, 180 min) it was 29.2 ± 13.1; in test [4] (110-G8, 180 min, listed as FOX) it was 29.2. Moreover, the “Relative ampC expression” value was determined as 3.7 in test [5] (101-E5, 0 min); 1.7 in test [5] (101-E5, 30 min); 5.7 ± 2.8 in test [5] (101-E5, 180 min); 5.7 in test [5] (101-E5, 180 min, listed as FOX); 1.4 in test [6] (103-H8, 0 min); 14.0 in test [6] (103-H8, 30 min). The “Relative ampC expression” value worked out at 50 ± 36.5 in test [6] (103-H8, 180 min) and 50.0 in test [6] (103-H8, 180 min, listed as FOX). Besides, the “ampC inducibility of PBP4 (dacB) mutant, fold lower than parental strain PAO1” value in [3] was found to be 32 fold.

Take `C[C@@H](O)[C@H]1C(=O)N2C(C(=O)O)=C(SCCN=CN)C[C@H]12` [Imipenem]: the IC50 was less than 0.835 µM at PBP1a, less than 0.835 µM on PBP2 and 1.67 µM at PBP5/6.
